For one series, the system named is HIV-1 (RF). Nature of the series: HIV RNA assay: microplate based compound evaluation in HIV-1 infected MT-2 cells. It counts as cell-based. The conditions noted are these: Human immunodeficiency virus 1, MT2, 72 h; HIV-1 (RF) infected MT-2 cells, 3 days of culture; virus dilution selected to standardize the inoculum; read-out: IC90 value (concentration of compound required to reduce the HIV RNA level by 90%). The procedure:
Plasmid pDAB 72 containing both gag and pol sequences of BH10 (bp 113-1816) cloned into PTZ 19R was prepared according to Erickson-Viitanen et al. AIDS Research and Human Retroviruses 1989, 5, 577. The plasmid was linearized with Bam HI prior to the generation of in vitro RNA transcripts using the Riboprobe Gemini system II kit (Promega) with T7 RNA polymerase. Synthesized RNA was purified by treatment with RNase free DNAse (Promega), phenol-chloroform extraction, and ethanol precipitation. RNA transcripts were dissolved in water, and stored at −70° C. The concentration of RNA was determined from the A260.
Biotinylated capture probes were purified by HPLC after synthesis on an Applied Biosystems (Foster City, Calif.) DNA synthesizer by addition of biotin to the 5′ terminal end of the oligonucleotide, using the biotin-phosphoramidite reagent of Cocuzza, Tet. Lett. 1989, 30, 6287. […]
MT-2 and MT-4 cells were maintained in RPMI 1640 supplemented with 5% fetal calf serum (FCS) for MT-2 cells or 10% FCS for MT-4 cells, 2 mM L-glutamine and 50 μg/mL gentamycin, all from Gibco. […] Infectious titers of HIV-1(RF) stocks were 1-3×10^7 PFU (plaque forming units) /mL as measured by plaque assay on MT-2 cells (see below). […]

SMILES strings stand for the structures. Values after ≈ are worked out from the molar mass of the structure shown.

In the case of `CCCCN1C(=O)N(Cc2ccc3[nH]nc(N)c3c2)[C@H](Cc2ccccc2)[C@H](O)[C@@H](O)[C@H]1Cc1ccccc1` [Example 1, (4R,5S,6S,7R)-Hexahydro-1-[5-(3-aminoindazole)methyl]-3-butyl-5,6-dihydroxy-4,7-bis[phenylmethyl]-2H-1,3-diazapin-2-one], the melting point was in the range of 129 to 131 °C.

Regarding `Nc1ccn([C@H]2CC[C@@H](CO)O2)c(=O)n1` [ddC, dideoxycytidine], the IC90 in the series with HIV-1 (RF) is 0.2 µg/mL (≈ 0.947 µM).

As usually defined, the melting point is the temperature of the solid-liquid transition.

Source of the values: US6451999B2, “1-(3-aminoindazol-5-yl)-3-butyl-cyclic urea useful as a HIV protease inhibitor” (Bristol-Myers Squibb Pharma Company, priority 1996, dated 2002).
